Data published in patent publication US11660287B2, “Agent for preventing or treating spinocerebellar ataxia” (FUJIFILM Toyama Chemical Co., Ltd., priority 2017, dated 2023).

Tested on: Mild to Moderate AD Patients
Experiment: Phase II placebo-controlled trial: change in brain volume by volumetric MRI (vMRI) at week 52
Assay type: in vivo, human
Conditions: for Change in hippocampus volume, least square means (standard error) / Change in whole brain volume, least square means (standard error): mixed-effect model
Description: Test Example 1 Multicenter Randomized Double-Blind Phase II Placebo-Controlled Trial for Assessing Effectiveness and Safety of Compound A in Mild to Moderate AD Patients
Subject (selection criteria): Patients were screened in a period from 42 days before treatment assignment to the assignment based on the following selection criteria.
• Patients who were probable AD and are 55 years old or older and 85 years old or younger at the time of obtaining consent of screening. • Patients with an MMSE score of 12 to 22 at the time of screening • Patients with a Modified Hachinski Ischemia Scale score of 4 or less • Patients who have been treated with a donepezil hydrochloride or rivastigmine transdermal system for at least 4 months before the baseline and with a stable dose thereof for 3 months before the baseline. • In the case of patients who have received memantine in addition to being treated with a donepezil hydrochloride or rivastigmine transdermal system, patients who have been treated with memantine for at least 4 months before the baseline and with a stable dose thereof for 3 months before the baseline. • Patients whose brain MRI or CT results match AD at the time of screening Organization of groups: Patients matched (484 patients) were randomly divided into the following 3 groups and the trial was started. (1) High dose group: 224 mg of a test compound (160 mg in terms of Compound A) was orally administered once a day for 4 weeks and then 448 mg of a test compound (320 mg in terms of Compound A) was orally administered once a day for 48 weeks (158 patients) (2) Low dose group: 224 mg of a test compound (160 mg in terms of Compound A) was orally administered once a day for 52 weeks (166 patients) (3) Placebo group: placebo was orally administered once a day for 52 weeks (158 patients) Method of Assessment: Volumetric MRI
Brain volume of subjects was measured by vMRI scan at the screening and after 52 weeks, and the volume change of the whole brain and the hippocampus of the subjects were quantified to assess brain atrophy based on the change from the screening.
Furthermore, volume change of the whole brain and 101 areas (obtained by dividing the areas existing in both the left brain and the right brain of the Brodmann areas (1 to 52) into 101 areas) in each subject was quantified to assess brain atrophy based on the change from the screening.
Changes in the volume of the whole brain and the hippocampus after 52 weeks from the baseline were compared between the high dose group and the placebo group, and between the low dose group and the placebo group based on Mixed-effect Models. For models, the treatment groups were included as a fixed effect, age, baseline of the respective brain volumes (the whole brain or the hippocampus), baseline of MMSE and ApoE4 genotype (positive/negative) were included as covariates, and trial sites were included as a random effect.
Furthermore, changes in the respective volumes of the whole brain and the 101 areas after 52 weeks from the baseline were compared between the high dose group and the placebo group, and between the low dose group and the placebo group.

[1] = High dose group (160 mg for 4 weeks, then 320 mg in terms of Compound A, oral once a day, for 48 weeks), week 52 vs baseline, vMRI
[2] = Low dose group (160 mg in terms of Compound A, oral once a day, 52 weeks), week 52 vs baseline, vMRI

Structure (SMILES): OC1CN(CCCOCCc2ccc3sccc3c2)C1 [Compound A, 1-(3-(2-(1-benzothiophen-5-yl)ethoxy)propyl)azetidin-3-ol]
- Change in the volume of the whole brain and the hippocampus compared with placebo group (in words) (Compound A group vs placebo group, week 52 from baseline): volume reduction tended to be smaller
- Volume reduction of the cerebellum compared to the placebo group (in words) (Compound A high dose group): same tendency as in the low dose group was observed
- Difference in effects on the change in hippocampal volume vs placebo group (in words) (Compound A low dose group vs placebo group, week 52): statistically significant
- Volume reduction of the cerebellum compared to the placebo group (in words) (Compound A low dose group, whole brain and 101 areas, Nos. 1, 2, 4 and 8 in Table 2): particularly tended to be suppressed
- Change in hippocampus volume, least square means (standard error) [1]: −0.31(0.057) mL
- Change in whole brain volume, least square means (standard error) [1]: −20.05(3.821) mL
- Change in hippocampus volume, difference from placebo group (95% confidence interval) (High dose group, week 52 vs baseline, p-value 0.0996): 0.08(−0.02, 0.18) mL
- Change in whole brain volume, difference from placebo group (95% confidence interval) (High dose group, week 52 vs baseline, p-value 0.2581): 3.94(−2.91, 10.79) mL
- Change in hippocampus volume, least square means (standard error) [2]: −0.27(0.053) mL
- Change in whole brain volume, least square means (standard error) [2]: −21.37(3.582) mL
- Change in hippocampus volume, difference from placebo group (95% confidence interval) (Low dose group, week 52 vs baseline, p-value 0.0106): 0.12(0.03, 0.22) mL
- Change in whole brain volume, difference from placebo group (95% confidence interval) (Low dose group, week 52 vs baseline, p-value 0.4456): 2.63(−4.15, 9.40) mL
- Change in brain volume, mean value: ctx-lh-parsorbitalis (Low dose group, week 52 vs baseline, vMRI, placebo −0.5499, p 0.0323): 0.1244
- Change in brain volume, mean value: Left-Cerebellum-Cortex (Low dose group, week 52 vs baseline, vMRI, placebo −0.6899, p 0.0005): −0.2695
- Change in brain volume, mean value: Right-Cerebellum-Cortex (Low dose group, week 52 vs baseline, vMRI, placebo −0.7248, p 0.0090): −0.3209
- Change in brain volume, mean value: Right-Cerebral-White-Matte (Low dose group, week 52 vs baseline, vMRI, placebo −1.4416, p 0.0157): −1.0753
- Change in brain volume, mean value: ctx-rh-lateral orbitofrontal (Low dose group, week 52 vs baseline, vMRI, placebo −1.5322, p 0.0146): −0.8995
- Change in brain volume, mean value: Left-Cerebral-White-Matter (Low dose group, week 52 vs baseline, vMRI, placebo −1.5679, p 0.0215): −1.2418
- Change in brain volume, mean value: Whole_brain (Low dose group, week 52 vs baseline, vMRI, placebo −1.5952, p 0.0054): −1.3142
- Change in brain volume, mean value: Right-Cerebellum-White-Matter (Low dose group, week 52 vs baseline, vMRI, placebo −1.6919, p 0.0014): −0.89
- Change in brain volume, mean value: Left-Cerebellum-White-Matter (Low dose group, week 52 vs baseline, vMRI, placebo −2.0490, p 0.0001): −0.9201
- Change in brain volume, mean value: ctx-lh-insula (Low dose group, week 52 vs baseline, vMRI, placebo −2.6470, p 0.0030): −1.9609
- Change in brain volume, mean value: ctx-rh-insula (Low dose group, week 52 vs baseline, vMRI, placebo −2.6510, p 0.0056): −1.9976
- Change in brain volume, mean value: ctx-rh-superior temporal (Low dose group, week 52 vs baseline, vMRI, placebo −2.9861, p 0.0013): −2.1332
- Change in brain volume, mean value: Left-Hippocampus (Low dose group, week 52 vs baseline, vMRI, placebo −3.0880, p 0.0232): −2.3402
- Change in brain volume, mean value: ctx-rh-inferior temporal (Low dose group, week 52 vs baseline, vMRI, placebo −3.2601, p 0.0124): −2.6157
- Change in brain volume, mean value: ctx-lh-entorhinal (Low dose group, week 52 vs baseline, vMRI, placebo −3.8173, p 0.0195): −2.97
